One assay has as its system Staphylococcus aureus. Put plainly: Minimum inhibitory concentration against Quinolone Resistant Staphylococcus aureus LF11C128B Strain. The format is functional.
The subject of a further assay is Staphylococcus hominis. Put plainly: Minimum inhibitory concentration against Quinolone sensitive Staphylococcus hominis IP8203 Strain. It counts as functional.

In brackets after ≈: the same amount, converted by molar mass.

The term MIC denotes the smallest concentration in the dilution series that meets the test's criterion for growth inhibition. A low value points to greater potency. `Cn1cc(C(=O)O)c(=O)c2cc3cc(F)c(N4CCCCCCC4)cc3nc21`: the MIC in the assay on Staphylococcus aureus and in the assay with Staphylococcus hominis was 1 µg/mL (≈ 2.61 µM) in each case. On to `CSCc1cccc(N2CCN(c3cc4nc5c(cc4cc3F)c(=O)c(C(=O)O)cn5C)CC2)c1`, for which the MIC against Staphylococcus aureus and with Staphylococcus hominis was 4 µg/mL (≈ 8.12 µM) each time. For the compound `Cn1cc(C(=O)O)c(=O)c2cc3cc(F)c(N4CCN(Cc5ccc(F)cc5)CC4)cc3nc21`, the MIC is 1 µg/mL (≈ 2.15 µM) in the assay on Staphylococcus aureus and 0.5 µg/mL (≈ 1.08 µM) in the assay with Staphylococcus hominis. Taken in the same sequence, the figures for `C/C(=C\C(=O)OCCCCCCCCC(=O)[O-])C[C@@H]1OC[C@H](C[C@@H]2O[C@H]2[C@@H](C)[C@H](C)O)[C@@H](O)[C@H]1O.C/C(=C\C(=O)OCCCCCCCCC(=O)[O-])C[C@@H]1OC[C@H](C[C@@H]2O[C@H]2[C@@H](C)[C@H](C)O)[C@@H](O)[C@H]1O.[Ca+2]` were 0.5 µg/mL and 0.5 µg/mL. For `C[N+](C)(C)CCO.Cn1cc(C(=O)[O-])c(=O)c2cc3cc(F)c(N4CCN(c5ccc(F)cc5)CC4)cc3nc21`, the values for the MIC against Staphylococcus aureus and with Staphylococcus hominis were 0.5 µg/mL and 0.25 µg/mL, respectively. For `Cn1cc(C(=O)O)c(=O)c2cc3cc(F)c(NC4CCCCC4)cc3nc21`, in that order: 1 µg/mL (≈ 2.71 µM) and 1 µg/mL (≈ 2.71 µM). On to `CCn1cc(C(=O)O)c(=O)c2cc(F)c(N3CCN(C)CC3)cc21` [PEFLOXACIN], for which the minimum inhibitory concentration (MIC) against Staphylococcus hominis came out at 0.5 µg/mL (≈ 1.5 µM).

The values above are taken from ChEMBL document CHEMBL1134013, “Synthesis and biological evaluation of benzo[b]naphthyridones, a series of new topical antibacterial agents” (2001).
